How the values were obtained:
RecG [1] = target: T1, RecG (Thermotoga maritima, UniProt Q9WY48); test: Steady-state ATPase rate measurements with phosphate biosensor MDCC-PBP; format: biochemical; settings: for Ki: 10 µM ATP, varying inhibitor; for tightness of binding (competitive inhibition): result in words
T1 construct: made in house
T1 sequence (Q9WY48 1-780): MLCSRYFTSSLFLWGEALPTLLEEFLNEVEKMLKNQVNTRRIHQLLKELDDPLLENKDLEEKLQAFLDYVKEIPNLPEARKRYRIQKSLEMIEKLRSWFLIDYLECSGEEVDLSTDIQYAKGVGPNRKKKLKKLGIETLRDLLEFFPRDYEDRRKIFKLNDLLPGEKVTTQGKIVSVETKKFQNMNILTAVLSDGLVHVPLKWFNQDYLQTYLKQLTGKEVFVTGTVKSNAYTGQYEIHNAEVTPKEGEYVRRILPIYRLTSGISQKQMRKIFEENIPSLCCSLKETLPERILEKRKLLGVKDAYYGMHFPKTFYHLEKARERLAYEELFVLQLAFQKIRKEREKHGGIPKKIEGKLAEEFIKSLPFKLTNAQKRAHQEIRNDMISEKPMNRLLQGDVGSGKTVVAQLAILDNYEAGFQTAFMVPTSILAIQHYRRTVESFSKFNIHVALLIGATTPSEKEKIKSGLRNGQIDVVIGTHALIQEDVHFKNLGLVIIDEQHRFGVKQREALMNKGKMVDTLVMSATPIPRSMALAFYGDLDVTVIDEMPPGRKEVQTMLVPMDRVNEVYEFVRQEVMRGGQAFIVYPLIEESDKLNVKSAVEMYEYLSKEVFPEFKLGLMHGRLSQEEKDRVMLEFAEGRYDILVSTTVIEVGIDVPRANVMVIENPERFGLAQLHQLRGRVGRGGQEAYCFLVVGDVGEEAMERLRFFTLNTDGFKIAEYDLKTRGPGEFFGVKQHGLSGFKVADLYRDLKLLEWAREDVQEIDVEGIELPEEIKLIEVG
Source text: Steady-state measurements were made to gain an overall assessment of the reaction and the affinities of various nucleotides before investigating the individual steps in the ATPase cycle. A two-strand DNA junction, which contains two 20-bp regions of complementary and non-complementary sequences (A40:B40 Figure 1 and Table S1), was used in all these measurements. This forms a Y-shape structure and RecG translocates one single-stranded arm, but then remains bound to the end of the junction still hydrolyzing ATP [10].
All reactions with RecG and DNA were done at 20°C in a buffer containing 50 mM Tris⋅acetate (pH 8.0), 30 mM potassium acetate, 3 mM magnesium acetate and 1 mM DTT. ATPase measurements using MDCC-PBP were taken in the presence of a Pi mop, as described above. Steady-state ATPase measurements were taken in a solution (60 µl) at 20°C, containing 10 nM RecG, 500 nM DNA junction (A40∶B40, see Table S1) and 10 µM MDCC-PBP with varying nucleotide concentrations as substrate or inhibitor [23].

RecG [2] = target: T1, RecG; test: Titrations of RecG into fluorescent nucleotides in the absence of DNA; format: binding
Protocol: The two phases of this fluorescence increase with excess RecG⋅DNA would therefore relate to formation of bound mantATP (1.5-fold intensity increase relative to free nucleotide) and bound mantADP (4.9-fold). This interpretation was supported by titrations of RecG into the fluorescent nucleotides in the absence of DNA.
Steady-state fluorescence was measured using a Cary Eclipse fluorimeter (Varian) with a xenon light source. Absorbance spectroscopy was performed using a Beckman DU640 spectrophotometer.

RecG⋅DNA(A40:B40) [3] = target: T2, RecG⋅DNA(A40:B40) (Thermotoga maritima, UniProt Q9WY48); test: Single turnover mant fluorescence, excess RecG⋅DNA over mantATP; format: biochemical; settings: excess RecG⋅DNA(A40:B40)
T2 construct: made in house
T2 sequence (Q9WY48 1-780): T1 sequence (Q9WY48 1-780)
Protocol: Extra information relating to changes in a single ATPase cycle can be obtained by mixing excess RecG⋅DNA(A40:B40) with mantATP (Figure 4A). […] The first change in fluorescence is presumably due to binding. After fitting to a double exponential, the observed rate constant for the initial change was linearly dependent on RecG concentration over the small range possible (0.5 µM –2.5 µM), limited by protein precipitation at higher concentrations. Due to the low concentrations, a hyperbolic dependence would not be observed. The observed rate constant of the second increase in fluorescence, 0.22 (±0.05) s^−1 (Figure 4A), was independent of RecG concentration. This second phase is likely to be due to the cleavage step, leading to the formation of bound mantADP.
Figure 4 Kinetic measurement of mantATP with excess of RecG and DNA: binding, hydrolysis and Pi release. The concentrations for all experiments were 0.5 µM mantATP, 2.5 µM RecG, 5 µM DNA (A40:B40) and 10 µM MDCC-PBP (for Pi measurement). All measurements were carried out at 20°C in the buffer described in Materials and Methods. (A) Time course of mant fluorescence (solid line), mantADP formation (circles) and Pi release (dashed line), measured as described in materials and methods. […] (B) Simulation of these time courses, based upon a global model for a single turnover of mantATP as described in the text. (C) The time course of mant fluorescence upon mixing 0.5 µM mantATP and 2.5 µM RecG with 5 µM DNA junction (A40:B40) after a first mixing of 5 µM RecG and 1 µM mantATP and aging for 1 s.
(§1) Stopped-flow experiments were performed in a HiTech SF61DX2 apparatus (TgK Scientific Ltd, Bradford-on-Avon, UK) with a mercury-xenon light source and HiTech KinetAsyst 3 or Kinetic Studio 1 software. For MDCC-PBP fluorescence, the excitation wavelength used was 436 nm and a 455 nm cut-off filter (Schott glass) used to collect emitted light. The signal was calibrated using known concentrations of Pi. The solutions contained the Pi mop, to minimize phosphate contamination and comprising 0.01 unit ml^−1 bacterial purine nucleoside phosphorylase and 200 µM 7-methylguanosine. For mant fluorescence, 366 nm was used to excite and a 400 nm cut-off filter (Schott glass) used to collect light. Measurements of Cy3 fluorescence used 547 nm excitation and a 570 nm cut-off filter. In experiments described, the quoted concentrations are those in the mixing chamber, except where stated. Data were fitted to theoretical curves using the HiTech software or Grafit.

RecG⋅DNA(A40:B40) [4] = target: T2, RecG⋅DNA(A40:B40); test: Stopped-flow mant fluorescence: mant nucleotide binding to RecG⋅DNA, pseudo-first-order
Protocol: MantATP binding to RecG⋅DNA(A40:B40) was measured under pseudo-first-order conditions, that is mantATP in large excess over the protein. Using the stopped-flow apparatus, several concentrations of mantATP were rapidly mixed with RecG⋅DNA and fluorescence followed with time. Each trace was fitted by a single exponential (Figure 3A) and the concentration dependence of the observed rate constants were fit well by a hyperbola (Figure 3B). […] As mantATP is also hydrolyzed, the rate of the forward reaction needs to be included, in this case limited by the cleavage step 2, as described later. The fit gives 1/K 1a as 24 (±4) µM, k +1b + k −1b + k +2 as 26.1 (±1.8) s^−1 and the intercept gives k −1b + k +2 as <1 s^−1. Given that k +2 is 0.2 s^–1 (see below), k −1b is <0.8 s^−1. Potentially, an alternative explanation for such a hyperbolic relationship could be preferential binding of either the 2′- or 3′-isomer of mantATP and then isomerization of the non-favored isomer. However, the observed rates in these measurements were several orders of magnitude faster than the likely isomerization rate. In order to assess whether the two isomers of mantATP and their interconversion are factors in any fluorescence traces for mantATP, an equivalent measurement was made using 3′-mant-2′-deoxyATP.
Figure 3 MantATP binding to RecG⋅DNA. MantATP at the micromolar concentrations shown was mixed in the stopped flow apparatus with 0.5 µM RecG and 2.5 µM DNA Junction (A40:B40) at 20°C in the buffer described in materials and methods. Individual traces (offset from each other) were fitted to single exponentials and the dependence of the rate constants on concentration was then fitted by a hyperbola. The points shown are averages of at least 3 measurements. The fit gives 1/K 1a as 24 (±4) µM and k +1b + k− 1b + k +2 as 26.1 (±1.8) s^−1 and the intercept was <1 s^–1 (Scheme in Figure 2B).
MantADP binding to RecG⋅DNA complex was measured under pseudo-first order conditions by stopped-flow fluorescence.
Figure 5 MantADP binding kinetics to RecG⋅DNA. MantADP at various concentrations was mixed in the stopped flow apparatus with 0.5 µM RecG and 2.5 µM DNA (A40:B40) under the conditions of Figure 4. Traces (not shown) were fitted by single exponentials. The rate constants are shown as a function of concentration and the best linear fit, gives a slope of 1.1 (±0.4) µM^−1s^−1 and an intercept of <1 s^−1.
as §1

RecG [5] = target: T1, RecG; test: Phosphate-water oxygen exchange during hydrolysis; format: biochemical; settings: DNA present (A40∶B40), γ-18O3 nucleotide, 25°C
Source text: In order to get information about the reverse of cleavage step 2 (scheme in Figure 2A), phosphate-water oxygen exchange measurements were done using (γ-^18O3)mantATP. Intermediate exchange can occur between terminal oxygens of the nucleotide and water during hydrolysis, giving information about the value of k +3 /k −2, as previously described. In this case, (γ-^18O3)mantATP was used as substrate and partial hydrolysis occurred in the presence of RecG⋅DNA, as described in the materials and methods section. The Pi had very similar distribution of oxygen-18 as with (γ-^18O3)mantATP, consistent with essentially little reversal of the cleavage step (k +3 /k −2≥9). This is consistent with a rapid release of Pi.
For intermediate exchange during ATP hydrolysis, 0.5 µM RecG and 1 mM (γ-^18O3)ATP or (γ-^18O3)mantATP were incubated for 10 min (+1 µM DNA A40∶B40, Table S1) or 20 min (- DNA) at 25°C in a volume of 100 µl in the buffer described below. Pi was analyzed for distribution of different ^18O-labeled species on a mass spectrometer as described previously, [37] except that during purification, the ^18O-labeled Pi was detected by MDCC-PBP, rather than radioactive tracers.
Supplementary file pone.0038270.s005.pdf: Table S2 Oxygen exchange during ATP or mantATP hydrolysis by RecG: distributions of oxygen-18 in the Pi product. Experiments were performed as described in Materials and Methods. The data were corrected for isotopic enrichment of the starting nucleotide, 93% for (γ-^18O3)mantATP and 98% for (γ-^18O3) ATP. […] Each distribution is the average of three mass spectral assays. Thus the distributions are for the product Pi as though the starting enrichment was 100%. In all cases there was very little oxygen exchange as shown by the large peak of (^18O3)Pi, in which all three γ-oxygens of ATP are retained. The distributions were then used to compute the ratio of rate constants for Pi release (k +3) and on-enzyme ATP resynthesis (k −2) as in Figure 2 [14], [37].

[6] = 500 nM DNA junction (A40:B40), 20°C
[7] = 20°C, 10 nM RecG, 500 nM DNA junction (A40:B40)

## Nc1ncnc2c1ncn2[C@@H]1O[C@H](COP(=O)(O)OP(=O)(O)NP(=O)(O)O)[C@@H](O)[C@H]1O [AMPPNP]
RecG [1]; [6]
  Ki: 44000 nM
RecG [1]
  tightness of binding (competitive inhibition): bound weakly

## Nc1ncnc2c1ncn2[C@@H]1O[C@H](CO[P@](=O)(O)O[P@](=O)(O)O[P@@](=O)(O)S)[C@@H](O)[C@H]1O [ATPγS]
RecG [1]; [6]
  Ki: 900 nM
RecG [1]
  tightness of binding (competitive inhibition): bound tightly
RecG [1]; slowly hydrolyzed analogue
  rate of hydrolysis: 0.1 s⁻¹

## CNc1ccccc1C(=O)O[C@H]1C[C@H](n2cnc3c(N)ncnc32)O[C@@H]1COP(=O)(O)OP(=O)(O)O [Mant-deoxyADP]
RecG [1]; [6]
  Ki: 100 nM

## CNc1ccccc1C(=O)O[C@H]1C[C@H](n2cnc3c(N)ncnc32)O[C@@H]1COP(=O)(O)OP(=O)(O)OP(=O)(O)O [Mant-deoxyATP, 3′-mant-2′-deoxyATP]
RecG [1]; [7]
  K m: 3.1 (±1.4) µM
  k cat: 1.3 (±0.5) s^−1

## CNc1ccccc1C(=O)O[C@H]1[C@@H](O)[C@H](n2cnc3c(N)ncnc32)O[C@@H]1COP(=O)(O)OP(=O)(O)O [mantADP]
RecG [2]
  increase in fluorescence on titration with RecG: 4.8 fold
RecG⋅DNA(A40:B40) [3]
  fluorescence intensity increase of bound nucleotide relative to free nucleotide: 4.9 fold
RecG [1]; [6]
  Ki: 30 nM
RecG⋅DNA(A40:B40) [4]; 20°C, linear fit
  k +4 (mantADP dissociation rate constant, intercept): < 1 s⁻¹
RecG⋅DNA(A40:B40) [4]; mantADP with RecG⋅DNA, used as model assumption
  Kd: < 50 nM
RecG⋅DNA(A40:B40) [4]; same conditions as hydrolysis and Pi release measurements
  increase in fluorescence on binding to RecG⋅DNA: 4.5 fold

## (γ-^18O3)mantATP
RecG [5]
  k +3 /k −2: ≥ 9

Source: article PMC3368886, “ATPase Cycle and DNA Unwinding Kinetics of RecG Helicase” (PLoS ONE, 2012)
